{"source": "paper PMC11963566", "about": "“A phase I, single-center, randomized, open-label, three-period crossover study to evaluate the drug–drug interaction between ZSP1273 and oseltamivir in healthy Chinese subjects” (Antimicrobial Agents and Chemotherapy, 2025)", "key": {"[1]": {"test": "clinical", "conditions": "human; for AUC(0-inf): AUC0-∞,ss"}, "[2]": {"test": "Safety assessment: adverse events (CTCAE 5.0, MedDRA 23.1) in healthy subjects", "type": "in vivo, human", "description": "Safety assessment was conducted from the first administration of the investigational drug until the end of the trial. Safety indicators included adverse events (AEs), serious adverse events (SAEs), clinical laboratory tests (hematology, biochemistry, and urinalysis), vital signs, physical examination, and 12-lead electrocardiogram.\nThe severity of AE was assessed according to the CTCAE 5.0 standard and includes grades 1 to 5. Based on the criteria for determining causality between drugs and adverse events, the relationship was classified into five levels: definitely related, probably related, possibly related, probably not related, definitely not related. Among them, definitely related, probably related, and possibly related are defined as drug-related AEs.\nAdverse events were coded using Med DRA 23.1 Chinese ([30]) and analyzed based on system organ class (SOC) and preferred term (PT). Adverse events during the treatment period, drug-related adverse events, and serious adverse events were described by frequency, number of cases (n), and incidence rate (%) according to SOC, PT, and the highest severity classification."}, "[3]": {"conditions": "subjects with AUC_%Extrap >20.0% or Rsq <0.800 excluded"}, "[4]": {"conditions": "SOC Gastrointestinal disorders, probably related"}, "[5]": {"conditions": "SOC General disorders and administration site conditions, possibly related"}, "[6]": {"conditions": "SOC Infections and infestations, probably not related"}, "[7]": {"conditions": "SOC Investigations, possibly related"}, "[8]": {"conditions": "SOC Investigations, probably not related"}, "[9]": {"conditions": "SOC Skin and subcutaneous tissue disorders, possibly related"}, "[10]": {"conditions": "healthy subjects, 5 days dosing"}}, "note": "Where two headings read alike, the source gives them in different places."}
{"molecule": "CCOC(=O)C1=C[C@@H](OC(CC)CC)[C@H](NC(C)=O)[C@@H](N)C1", "note": "[Oseltamivir, oseltamivir]", "values": [{"measurement": "AUC0-t,ss, geometric mean ratio co-administration/monotherapy", "setting": "human, in vivo", "value": 92.7, "unit": "%"}, {"measurement": "AUC0-τ,ss, geometric mean ratio co-administration/monotherapy", "setting": "human, in vivo", "value": 92.2, "unit": "%"}, {"measurement": "AUC0-∞,ss, geometric mean ratio co-administration/monotherapy", "setting": "human, in vivo", "value": 92.6, "unit": "%"}, {"measurement": "AUC0-∞,ss, intra-individual coefficient of variation", "setting": "human, in vivo", "value": 11.8, "unit": "%"}, {"measurement": "Cmax,ss, geometric mean ratio co-administration/monotherapy", "setting": "human, in vivo", "value": 60.1, "unit": "%"}, {"measurement": "decrease in Cmax,ss after co-administration", "setting": "human, in vivo", "value": 39.9, "unit": "%"}, {"measurement": "CLss/F", "setting": "human, in vivo, po", "value": "459.8 ± 106.3 (23.1%) L/h"}, {"measurement": "AUC0-∞,ss, geometric mean ratio co-administration/monotherapy", "setting": "[3]", "value": 93.5, "unit": "%"}, {"measurement": "AUC0-∞,ss, intra-individual coefficient of variation", "setting": "[3]", "value": 10.7, "unit": "%"}, {"measurement": "AUC(0-t)", "setting": "[1]; in vivo, AUC0-t,ss, geometric mean", "value": 170, "unit": "ng·h/mL"}, {"measurement": "AUC", "setting": "[1]; in vivo, AUC0-τ,ss, geometric mean", "value": 167, "unit": "ng·h/mL"}, {"measurement": "AUC(0-inf)", "setting": "[1]; in vivo, geometric mean", "value": 175, "unit": "ng·h/mL"}, {"measurement": "AUC(0-inf)", "setting": "[1]; in vivo, geometric mean, monotherapy, subjects with AUC_%Extrap >20.0% or Rsq <0.800 excluded", "value": 175, "unit": "ng·h/mL"}, {"measurement": "Cmax", "setting": "[1]; in vivo, Cmax,ss, geometric mean", "value": 91.2, "unit": "ng/mL"}, {"measurement": "Tmax", "setting": "[1]; in vivo, po, Tmax,ss", "value": 30, "unit": "min"}, {"measurement": "Vd/F", "setting": "[1]; in vivo, po, Vz/F", "value": 3070, "unit": "L"}, {"measurement": "half-life", "setting": "[1]; in vivo, po, t1/2,ss", "value": "270 ± 288", "unit": "min"}, {"measurement": "AUC(0-inf)", "setting": "[1]; plasma, oral, geometric mean, co-administration ZSP1273 + oseltamivir, plasma, day 5, all subjects", "value": 163, "unit": "ng·h/mL"}, {"measurement": "k el", "setting": "[1]; plasma, po, 75 mg", "value": "7.78e-05", "unit": "s⁻¹"}, {"measurement": "Gastrointestinal disorders (SOC): Cases (%)", "setting": "[2]; AE by system organ class", "value": "0 Cases (%)"}, {"measurement": "Gastrointestinal disorders (SOC): Occurrences", "setting": "[2]; AE by system organ class", "value": 0}, {"measurement": "General disorders and administration site conditions (SOC): Cases (%)", "setting": "[2]; AE by system organ class", "value": "0 Cases (%)"}, {"measurement": "General disorders and administration site conditions (SOC): Occurrences", "setting": "[2]; AE by system organ class", "value": 0}, {"measurement": "Infections and infestations (SOC): Cases (%)", "setting": "[2]; AE by system organ class", "value": "1 (2.9) Cases (%)"}, {"measurement": "Infections and infestations (SOC): Occurrences", "setting": "[2]; AE by system organ class", "value": 1}, {"measurement": "Investigations (SOC): Cases (%)", "setting": "[2]; AE by system organ class", "value": "6 (17.6) Cases (%)"}, {"measurement": "Investigations (SOC): Occurrences", "setting": "[2]; AE by system organ class", "value": 12}, {"measurement": "Skin and subcutaneous tissue disorders (SOC): Cases (%)", "setting": "[2]; AE by system organ class", "value": "1 (2.9) Cases (%)"}, {"measurement": "Skin and subcutaneous tissue disorders (SOC): Occurrences", "setting": "[2]; AE by system organ class", "value": 1}, {"measurement": "Diarrhea: Cases (%)", "setting": "[2]; [4]", "value": "0 Cases (%)"}, {"measurement": "Diarrhea: Occurrences", "setting": "[2]; [4]", "value": 0}, {"measurement": "Fever: Cases (%)", "setting": "[2]; [5]", "value": "0 Cases (%)"}, {"measurement": "Fever: Occurrences", "setting": "[2]; [5]", "value": 0}, {"measurement": "Upper respiratory tract infection (URTI): Cases (%)", "setting": "[2]; [6]", "value": "1 (2.9) Cases (%)"}, {"measurement": "Upper respiratory tract infection (URTI): Occurrences", "setting": "[2]; [6]", "value": 1}, {"measurement": "Decreased blood triglycerides: Cases (%)", "setting": "[2]; [7]", "value": "1 (2.9) Cases (%)"}, {"measurement": "Decreased blood triglycerides: Occurrences", "setting": "[2]; [7]", "value": 1}, {"measurement": "Decreased high-density lipoprotein (HDL): Cases (%)", "setting": "[2]; [7]", "value": "2 (5.9) Cases (%)"}, {"measurement": "Decreased high-density lipoprotein (HDL): Occurrences", "setting": "[2]; [7]", "value": 2}, {"measurement": "Decreased neutrophil count: Cases (%)", "setting": "[2]; [7]", "value": "0 Cases (%)"}, {"measurement": "Decreased neutrophil count: Occurrences", "setting": "[2]; [7]", "value": 0}, {"measurement": "Increased blood cholesterol: Cases (%)", "setting": "[2]; [7]", "value": "0 Cases (%)"}, {"measurement": "Increased blood cholesterol: Occurrences", "setting": "[2]; [7]", "value": 0}, {"measurement": "Increased blood creatinine: Cases (%)", "setting": "[2]; [7]", "value": "0 Cases (%)"}, {"measurement": "Increased blood creatinine: Occurrences", "setting": "[2]; [7]", "value": 0}, {"measurement": "Increased blood triglycerides: Cases (%)", "setting": "[2]; [7]", "value": "1 (2.9) Cases (%)"}, {"measurement": "Increased blood triglycerides: Occurrences", "setting": "[2]; [7]", "value": 1}, {"measurement": "Increased blood uric acid: Cases (%)", "setting": "[2]; [7]", "value": "1 (2.9) Cases (%)"}, {"measurement": "Increased blood uric acid: Occurrences", "setting": "[2]; [7]", "value": 1}, {"measurement": "Increased gamma-glutamyl transferase (GGT): Cases (%)", "setting": "[2]; [7]", "value": "0 Cases (%)"}, {"measurement": "Increased gamma-glutamyl transferase (GGT): Occurrences", "setting": "[2]; [7]", "value": 0}, {"measurement": "Increased lipase: Cases (%)", "setting": "[2]; [7]", "value": "0 Cases (%)"}, {"measurement": "Increased lipase: Occurrences", "setting": "[2]; [7]", "value": 0}, {"measurement": "Increased low-density lipoprotein (LDL): Cases (%)", "setting": "[2]; [7]", "value": "0 Cases (%)"}, {"measurement": "Increased low-density lipoprotein (LDL): Occurrences", "setting": "[2]; [7]", "value": 0}, {"measurement": "Crystals present in urine: Cases (%)", "setting": "[2]; [8]", "value": "1 (2.9) Cases (%)"}, {"measurement": "Crystals present in urine: Occurrences", "setting": "[2]; [8]", "value": 1}, {"measurement": "Decreased hemoglobin: Cases (%)", "setting": "[2]; [8]", "value": "2 (5.9) Cases (%)"}, {"measurement": "Decreased hemoglobin: Occurrences", "setting": "[2]; [8]", "value": 2}, {"measurement": "Increased urine specific gravity: Cases (%)", "setting": "[2]; [8]", "value": "1 (2.9) Cases (%)"}, {"measurement": "Increased urine specific gravity: Occurrences", "setting": "[2]; [8]", "value": 1}, {"measurement": "Nitrites present in urine: Cases (%)", "setting": "[2]; [8]", "value": "1 (2.9) Cases (%)"}, {"measurement": "Nitrites present in urine: Occurrences", "setting": "[2]; [8]", "value": 1}, {"measurement": "Positive urine occult blood: Cases (%)", "setting": "[2]; [8]", "value": "1 (2.9) Cases (%)"}, {"measurement": "Positive urine occult blood: Occurrences", "setting": "[2]; [8]", "value": 1}, {"measurement": "Protein detected in urine: Cases (%)", "setting": "[2]; [8]", "value": "1 (2.9) Cases (%)"}, {"measurement": "Protein detected in urine: Occurrences", "setting": "[2]; [8]", "value": 1}, {"measurement": "Acneiform dermatitis: Cases (%)", "setting": "[2]; [9]", "value": "1 (2.9) Cases (%)"}, {"measurement": "Acneiform dermatitis: Occurrences", "setting": "[2]; [9]", "value": 1}, {"measurement": "Maculopapular rash: Cases (%)", "setting": "[2]; [9]", "value": "0 Cases (%)"}, {"measurement": "Maculopapular rash: Occurrences", "setting": "[2]; [9]", "value": 0}, {"measurement": "increased blood triglycerides, incidence", "setting": "[2]; drug-related adverse event", "value": 2.9, "unit": "%"}, {"measurement": "At least one treatment-emergent adverse event (TEAE): Cases (%)", "setting": "[2]; [10]", "value": "7 (20.6) Cases (%)"}, {"measurement": "At least one treatment-emergent adverse event (TEAE): Occurrences", "setting": "[2]; [10]", "value": 14}, {"measurement": "At least one treatment-emergent adverse event related to drugs: Cases (%)", "setting": "[2]; [10]", "value": "5 (14.7) Cases (%)"}, {"measurement": "At least one treatment-emergent adverse event related to drugs: Occurrences", "setting": "[2]; [10]", "value": 6}]}
